Experiments:
bedstraw = assay: Test B pre/postemergence bedstraw; assay type: in vivo, Galium aparine
Method in brief: (§1)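 Response is a visual 0-to-10 score relative to untreated plants, where 0 means no effect and 10 means complete control, taken twelve to sixteen days after application. Treatments went onto soil at planting and onto foliage of 1- to 4-leaf plants, using a surfactant-containing non-phytotoxic solvent.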

blackgrass = assay: Test B pre/postemergence blackgrass; assay type: in vivo, Alopecurus myosuroides
Method in brief: as §1

surinam grass = assay: Test B pre/postemergence surinam grass; assay type: in vivo, Brachiaria decumbens
Method in brief: as §1

cocklebur = assay: Test B pre/postemergence cocklebur; assay type: in vivo, Xanthium strumarium
Method in brief: as §1

corn = assay: Test B pre/postemergence corn; assay type: in vivo, Zea mays
Method in brief: as §1

crabgrass = assay: Test B pre/postemergence crabgrass; assay type: in vivo, Digitaria sanguinalis
Method in brief: as §1

giant foxtail = assay: Test B pre/postemergence giant foxtail; assay type: in vivo, Setaria faberii
Method in brief: as §1

morningglory = assay: Test B pre/postemergence morningglory; assay type: in vivo, Ipomoea hederacea
Method in brief: as §1

pigweed = assay: Test B pre/postemergence pigweed; assay type: in vivo, Amaranthus retroflexus
Method in brief: as §1

soybean = assay: Test B pre/postemergence soybean; assay type: in vivo, Glycine max
Method in brief: as §1

sugar beet = assay: Test B pre/postemergence sugar beet; assay type: in vivo, Beta vulgaris
Method in brief: as §1

wild oat = assay: Test B pre/postemergence wild oat; assay type: in vivo, Avena fatua
Method in brief: as §1

purple nutsedge = assay: Test B pre/postemergence purple nutsedge; assay type: in vivo, Cyperus rotundus
Method in brief: as §1

rice = assay: Test B flood test rice; assay type: in vivo, Oryza sativa
Method in brief: (§2)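 Read-out is a visual response score from 0 (no effect) to 10 (complete control), assigned by comparison with untreated controls. Treatment was applied at the 2-leaf stage, and plants stayed in the greenhouse for twelve to sixteen days before scoring.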

smallflower flatsedge = assay: Test B flood test smallflower flatsedge; assay type: in vivo, Cyperus difformis
Method in brief: as §2

duck salad = assay: Test B flood test duck salad; assay type: in vivo, Heteranthera limosa
Method in brief: as §2

[1] = Postemergence, Rate 62 g/ha, scale 0 to 10, 0 is no effect, 10 is complete control
[2] = Postemergence, Rate 250 g/ha, scale 0 to 10, 0 no effect, 10 complete control
[3] = Preemergence, Rate 62 g/ha, scale 0 to 10, 0 is no effect, 10 is complete control
[4] = Preemergence, Rate 125 g/ha, scale 0 to 10 (0 no effect, 10 complete control)
[5] = Preemergence, Rate 250 g/ha, scale of 0 to 10 where 0 is no effect and 10 is complete control
[6] = Preemergence, Rate 500 g/ha, scale 0 (no effect) to 10 (complete control)
[7] = Rate 125 g/ha, Postemergence, scale 0 to 10, 0 no effect, 10 complete control
[8] = Rate 500 g/ha, Postemergence, scale 0 to 10, 0 no effect, 10 complete control
[9] = Rate 125 g/ha, Postemergence section (flood test species), scale 0 to 10, 0 no effect, 10 complete control
[10] = Rate 500 g/ha, listed under Postemergence (flood test species), scale 0 to 10, 0 no effect, 10 complete control
[11] = flood test, listed under Postemergence, Rate 250 g/ha, scale 0 to 10, 0 no effect, 10 complete control

Cc1ccccc1-n1c(=O)on(C(=O)N(c2ccc(F)c(F)c2)C(C)C)c1=O [Compound 48]
Bedstraw plant response rating (bedstraw; [1]): 0
Bedstraw plant response rating (bedstraw; [2]): 0
Plant response rating, Bedstraw (bedstraw; [3]): 0
Plant response rating, Bedstraw (bedstraw; [4]): 0
Plant response rating, Bedstraw (bedstraw; [5]): 0
Bedstraw plant response rating (bedstraw; [6]): 0
Bedstraw plant response rating (bedstraw; [7]): 0
Blackgrass plant response rating (blackgrass; [1]): 0
Blackgrass plant response rating (blackgrass; [2]): 0
Plant response rating, Blackgrass (blackgrass; [3]): 0
Plant response rating, Blackgrass (blackgrass; [4]): 0
Plant response rating, Blackgrass (blackgrass; [5]): 2
Blackgrass plant response rating (blackgrass; [6]): 2
Blackgrass plant response rating (blackgrass; [7]): 0
Blackgrass plant response rating (blackgrass; [8]): 0
B. signalgrass plant response rating (surinam grass; [1]): 0
B. signalgrass plant response rating (surinam grass; [2]): 0
Plant response rating, B. signalgrass (surinam grass; [3]): 0
Plant response rating, B. signalgrass (surinam grass; [4]): 0
Plant response rating, B. signalgrass (surinam grass; [5]): 0
B. signalgrass plant response rating (surinam grass; [6]): 0
B. signalgrass plant response rating (surinam grass; [7]): 0
B. signalgrass plant response rating (surinam grass; Rate 500 g/ha, Postemergence, scale of 0 to 10 where 0 is no effect and 10 is complete control): 0
Cocklebur plant response rating (cocklebur; [1]): 0
Cocklebur plant response rating (cocklebur; [2]): 0
Plant response rating, Cocklebur (cocklebur; [3]): 0
Plant response rating, Cocklebur (cocklebur; [4]): 0
Plant response rating, Cocklebur (cocklebur; [5]): 0
Cocklebur plant response rating (cocklebur; [6]): 0
Cocklebur plant response rating (cocklebur; [7]): 0
Cocklebur plant response rating (cocklebur; [8]): 2
Corn plant response rating (corn; [1]): 0
Corn plant response rating (corn; [2]): 0
Plant response rating, Corn (corn; [3]): 0
Plant response rating, Corn (corn; [4]): 0
Plant response rating, Corn (corn; [5]): 0
Corn plant response rating (corn; [6]): 0
Corn plant response rating (corn; [7]): 0
Corn plant response rating (corn; [8]): 0
Crabgrass plant response rating (crabgrass; [1]): 0
Crabgrass plant response rating (crabgrass; [2]): 3
Plant response rating, Crabgrass (crabgrass; [3]): 1
Plant response rating, Crabgrass (crabgrass; [4]): 6
Plant response rating, Crabgrass (crabgrass; [5]): 7
Crabgrass plant response rating (crabgrass; [6]): 7
Crabgrass plant response rating (crabgrass; [7]): 1
Crabgrass plant response rating (crabgrass; [8]): 8
Giant foxtail plant response rating (giant foxtail; [1]): 0
Giant foxtail plant response rating (giant foxtail; [2]): 2
Plant response rating, Giant foxtail (giant foxtail; [3]): 6
Plant response rating, Giant foxtail (giant foxtail; [4]): 9
Plant response rating, Giant foxtail (giant foxtail; [5]): 10
Giant foxtail plant response rating (giant foxtail; [6]): 10
Giant foxtail plant response rating (giant foxtail; [7]): 0
Giant foxtail plant response rating (giant foxtail; [8]): 3
Morningglory plant response rating (morningglory; [1]): 0
Morningglory plant response rating (morningglory; [2]): 0
Plant response rating, Morningglory (morningglory; [3]): 0
Plant response rating, Morningglory (morningglory; [4]): 0
Plant response rating, Morningglory (morningglory; [5]): 0
Morningglory plant response rating (morningglory; [6]): 0
Morningglory plant response rating (morningglory; [7]): 0
Morningglory plant response rating (morningglory; [8]): 1
Redroot pigweed plant response rating (pigweed; [1]): 0
Redroot pigweed plant response rating (pigweed; [2]): 0
Plant response rating, Redroot pigweed (pigweed; [3]): 0
Plant response rating, Redroot pigweed (pigweed; [4]): 0
Plant response rating, Redroot pigweed (pigweed; [5]): 0
Redroot pigweed plant response rating (pigweed; [6]): 0
Redroot pigweed plant response rating (pigweed; [7]): 0
Redroot pigweed plant response rating (pigweed; [8]): 0
Soybean plant response rating (soybean; [1]): 1
Soybean plant response rating (soybean; [2]): 1
Plant response rating, Soybean (soybean; [3]): 0
Plant response rating, Soybean (soybean; [4]): 0
Plant response rating, Soybean (soybean; [5]): 0
Soybean plant response rating (soybean; [6]): 0
Soybean plant response rating (soybean; [7]): 1
Soybean plant response rating (soybean; [8]): 1
Sugarbeets plant response rating (sugar beet; [1]): 0
Sugarbeets plant response rating (sugar beet; [2]): 0
Plant response rating, Sugarbeets (sugar beet; [3]): 0
Plant response rating, Sugarbeets (sugar beet; [4]): 0
Plant response rating, Sugarbeets (sugar beet; [5]): 0
Sugarbeets plant response rating (sugar beet; [6]): 0
Sugarbeets plant response rating (sugar beet; [7]): 0
Sugarbeets plant response rating (sugar beet; [8]): 0
Wild oats plant response rating (wild oat; [1]): 0
Wild oats plant response rating (wild oat; [2]): 0
Plant response rating, Wild oats (wild oat; [4]): 0
Plant response rating, Wild oats (wild oat; [5]): 2
Wild oats plant response rating (wild oat; [6]): 2
Wild oats plant response rating (wild oat; [7]): 0
Wild oats plant response rating (wild oat; [8]): 0
Nutsedge plant response rating (purple nutsedge; [1]): 0
Nutsedge plant response rating (purple nutsedge; [2]): 0
Plant response rating, Nutsedge (purple nutsedge; [3]): 0
Plant response rating, Nutsedge (purple nutsedge; [4]): 0
Plant response rating, Nutsedge (purple nutsedge; [5]): 0
Nutsedge plant response rating (purple nutsedge; [6]): 0
Nutsedge plant response rating (purple nutsedge; [7]): 0
Nutsedge plant response rating (purple nutsedge; [8]): 0
Rice plant response rating (rice; [1]): 0
Rice plant response rating (rice; [9]): 0
Rice plant response rating (rice; [10]): 0
Rice plant response rating (rice; [11]): 0
S. Flatsedge plant response rating (smallflower flatsedge; [1]): 0
S. Flatsedge plant response rating (smallflower flatsedge; [9]): 0
S. Flatsedge plant response rating (smallflower flatsedge; [10]): 0
S. Flatsedge plant response rating (smallflower flatsedge; [11]): 0
Ducksalad plant response rating (duck salad; [1]): 0
Ducksalad plant response rating (duck salad; [10]): 0
Ducksalad plant response rating (duck salad; [11]): 0

— patent US6737383B1, “Herbicidal oxadiazolidines” (priority 1999, dated 2004)
